According to publication PMC6509125, “The selective disruption of presynaptic JNK2/STX1a interaction reduces NMDA receptor-dependent glutamate release” (Scientific Reports, 2019):

Key:
Type in all cases: cell-based, mouse
[1] = test system: presynaptic NMDA receptors; assay: mEPSC whole cell patch clamp recordings in entorhinal cortex slices; conditions: TTX 1 µM, PTX 100 µM, MK-801 10 µM in pipette; n = 8
p46-JNK = p46-JNK phosphorylation, western blot of cortical synaptosomes; conditions: NMDA 100 µM + glycine 1 µM 10 min or KCl 8 mM 90 s (Fig. 1A); n = 6
STX1a (Ser14 p-STX1a) = assay: STX1a Ser14 phosphorylation, western blot of cortical synaptosomes; conditions: mean ± s.e.m.; for Ser14 p-STX1a levels vs. control = 1, stimulus alone: NMDA 100 µM + glycine 1 µM 10 min or KCl 8 mM 90 s (Fig. 1B), n = 6
p54-JNK = p54-JNK phosphorylation, western blot of cortical synaptosomes; conditions: mean ± s.e.m.; for p54-JNK phosphorylation vs. control, stimulus alone: NMDA 100 µM + glycine 1 µM 10 min or KCl 8 mM 90 s (Fig. 1A), n = 6
SNARE complex = SNARE complex formation assay in cortical synaptosomes; conditions: NMDA 100 µM + glycine 1 µM 10 min alone; mean ± s.e.m., n = 4
[2] = test system: NMDA-evoked exocytosis, cortical synaptosomes; assay: Synaptic vesicle release, FM1-43 destaining in cortical synaptosomes; conditions: NMDA 100 µM + glycine 1 µM, 0 µM JGRi1; mean ± s.e.m., n = 5

SMILES	mEPSC amplitude, vehicle vs. D-AP5 [1]	mEPSC inter-event interval (iei), vehicle vs. D-AP5 [1]	p46-JNK phosphorylation, stimulus alone (p46-JNK)	Ser14 p-STX1a levels vs. control = 1, stimulus alone (STX1a (Ser14 p-STX1a))	p54-JNK phosphorylation vs. control, stimulus alone (p54-JNK)	SNARE complex formation vs. control = 1, stimulus alone (SNARE complex)	NMDA-induced release of fluorescent dye FM1-43, stimulus alone [2]	STX1a phosphorylation vs. control = 1, stimulus alone (STX1a (Ser14 p-STX1a); NMDA 100 µM + glycine 1 µM 10 min alone (Fig. 4B), n = 7)	p54-JNK phosphorylation vs. control = 1, stimulus alone (p54-JNK; NMDA 100 µM + glycine 1 µM 10 min alone (Fig. 4A), n = 7)
NC(CCCP(=O)(O)O)C(=O)O [D-AP5]	unaffected	induced an increase of iei	–	–	–	–	–	–	–
[Cl-].[K+] [KCl]	–	–	unchanged	1.22 ± 0.11	not by KCl stimulus	–	–	–	–
CN[C@H](CC(=O)O)C(=O)O [NMDA, N-methyl-D-aspartate]	–	–	unchanged	1.38 ± 0.07	1.58 ± 0.12	1.85 ± 0.06	68% ± 10	1.51 ± 0.13	1.54 ± 0.12
